Data on 24 compounds can be found in patent publication US20110281869A1, “TETRAHYDROISOQUINOLINES AS ANTIMALARIAL AGENTS” (priority 2008, published 2011).

In this assay the test system is P. falciparum K1. The assay can be described thus: Plasmodium falciparum in vitro assay ([3H] hypoxanthine incorporation). It counts as cell-based. As for the experimental part:
In vitro antimalarial activity: Plasmodium falciparum in vitro assay In vitro activity against erythrocytic stages of P. falciparum is determined using a [^3H] hypoxanthine incorporation assay. One strain resistant to chloroquine and pyrimethamine (P. falciparum K1) is used in the assays, and all test compounds are compared for activity with the standard drugs chloroquine (sigma C6628) and artemisinin (sigma-36, 159-3). Compounds are diluted in DMSO to 1 mM and added to parasite cultures incubated in RPMI 1640 medium without hypoxanthine, supplemented with HEPES (5.94 g/L), NaHCO3 (2.1 g/L), neomycin (100 U/mL), Albumax (5 g/L) and washed human red cells at 2.5% hematocrit (0.3% parasitaemia). Seven serial doubling dilutions of each drug are prepared in 96-well microtitre plates and incubated in a humidifying atmosphere at 37° C.; 4% CO2, 3% O2, 93% N2.
After 48 h, 50 μl of [^3H] hypoxanthine (0.5 μCi) is added to each well of a plate. The plates are incubated for a further 24 h under the same conditions. The plates are then harvested with a Betaplate cell harvester (Wallac) and washed with distilled water. The dried filters are inserted into a plastic foil with 10 mL of scintillation fluid, and counted in a Betaplate liquid scintillation counter. IC50 values are calculated from sigmoidal inhibition curves using Microsoft Excel.

The mark [1] stands for this setting: Plasmodium falciparum, erythrocytic stages, strain K1 resistant to chloroquine and pyrimethamine, human red cells, read-out: IC50 (nM) on K1.

SMILES strings stand for the structures. Where two headings read alike, the source gives them in different places.

In the case of `Cn1nccc1CC(C(=O)N1CCc2ccccc2C1)N(Cc1ccc(-c2ccncc2)cc1)C(=O)C=Cc1ccc(C(F)(F)F)cc1` (racemic) [Example 84, rac-N-[2-(3,4-Dihydro-1H-isoquinolin-2-yl)-1-(2-methyl-2H-pyrazol-3-ylmethyl)-2-oxo-ethyl]-N-(4-pyridin-4-yl-benzyl)-3-(4-trifluoromethyl-phenyl)-acrylamide], the IC50 under setting [1] was 84 nM.
In the case of `Cn1ccc(C=CC(=O)N(Cc2ccc(-c3ccncc3)cc2)[C@@H](Cc2ccccc2)C(=O)N2CCc3ccccc3C2)n1` [Example 243, (S)—N-[1-Benzyl-2-(3,4-dihydro-1H-isoquinolin-2-yl)-2-oxo-ethyl]-3-(1-methyl-1H-pyrazol-3-yl)-N-(4-pyridin-4-yl-benzyl)-acrylamide], the concentration for half-maximal inhibition (IC50) under setting [1] was below 7.8 nM.
On the same count and under the same terms, the same measure for `Cn1cc(C=CC(=O)N(Cc2ccc(-c3cnccn3)cc2)[C@@H](Cc2ccccc2)C(=O)N2CCc3ccccc3C2)cn1` [Example 116, (S)—N-[1-Benzyl-2-(3,4-dihydro-1H-isoquinolin-2-yl)-2-oxo-ethyl]-3-(1-methyl-1H-pyrazol-4-yl)-N-(4-pyrazin-2-yl-benzyl)-acrylamide]: 67 nM; for `COc1ccc(C=CC(=O)N(Cc2ccc(-c3ncccn3)cc2)[C@@H](Cc2ccccc2)C(=O)N2CCc3ccccc3C2)cn1` [Example 93, (S)—N-[1-Benzyl-2-(3,4-dihydro-1H-isoquinolin-2-yl)-2-oxo-ethyl]-3-(6-methoxy-pyridin-3-yl)-N-(4-pyrimidin-2-yl-benzyl)-acrylamide]: 19 nM.
As to `CCN(CC)CCCC(C)Nc1ccnc2cc(Cl)ccc12` (stereo not drawn) [Chloroquine, chloroquine, reference compound], the IC50 (Plasmodium falciparum, K1, read-out: IC50 (nM) on K1) came out at 300 nM.
As for `Cn1ccc(CC(C(=O)N2CCc3ccccc3C2)N(Cc2ccc(-c3ccncc3)cc2)C(=O)C=Cc2ccc(C(F)(F)F)cc2)n1` (racemic) [Example 82, rac-N-[2-(3,4-Dihydro-1H-isoquinolin-2-yl)-1-(1-methyl-1H-pyrazol-3-ylmethyl)-2-oxo-ethyl]-N-(4-pyridin-4-yl-benzyl)-3-(4-trifluoromethyl-phenyl)-acrylamide], the IC50 under setting [1] is 24 nM.
Turning to `Cc1ccc(C=CC(=O)N(Cc2ccc(-c3ccccn3)cc2)[C@@H](Cc2ccccc2)C(=O)N2CCc3ccccc3C2)cc1` [Example 32, (S)—N-[1-Benzyl-2-(3,4-dihydro-1-H-isoquinolin-2-yl)-2-oxo-ethyl]-N-(4-pyridin-2-yl-benzyl)-3-p-tolyl-acrylamide], the IC50 (erythrocytic stages, strain K1 resistant to chloroquine and pyrimethamine, human red cells, read-out: IC50 (nM) on K1) was determined as 7.5 nM.
With `COc1ccc2c(c1)CN(C(=O)[C@H](Cc1ccccc1)N(Cc1ccc(-c3ccccn3)cc1)C(=O)C=Cc1ccc(C(F)(F)F)cc1)CC2` [Example 69, (S)—N-[1-Benzyl-2-(7-methoxy-3,4-dihydro-1H-isoquinolin-2-yl)-2-oxo-ethyl]-N-(4-pyridin-2-yl-benzyl)-3-(4-trifluoromethyl-phenyl)-acrylamide], under setting [1], the half-maximal inhibitory concentration (IC50) amounted to 12 nM.
As for `O=C([C@H](Cc1ccccc1)N(Cc1ccc(-c2cncnc2)cc1)C(=O)C=Cc1ccc(Cl)nc1)N1CCc2ccccc2C1` [Example 228, (S)—N-[1-Benzyl-2-(3,4-dihydro-1H-isoquinolin-2-yl)-2-oxo-ethyl]-3-(6-chloro-pyridin-3-yl)-N-(4-pyrimidin-5-yl-benzyl)-acrylamide], the half-maximal inhibitory concentration (IC50) under setting [1] stood at 8.5 nM.
On the same count and under the same terms, the same measure for `COc1ncc(C=CC(=O)N(Cc2ccc(-c3cnccn3)cc2)[C@@H](Cc2ccccc2)C(=O)N2CCc3ccccc3C2)cn1` [Example 114, (S)—N-[1-Benzyl-2-(3,4-dihydro-1H-isoquinolin-2-yl)-2-oxo-ethyl]-3-(2-methoxy-pyrimidin-5-yl)-N-(4-pyrazin-2-yl-benzyl)-acrylamide]: 63 nM.
On the same count and under the same terms, under `O=C([C@H](Cc1ccccc1)N(Cc1ccccn1)C(=O)C=Cc1ccc(C(F)(F)F)cc1)N1CCc2ccccc2C1` [Example 6, (S)—N-[1-Benzyl-2-(3,4-dihydro-1H-isoquinolin-2-yl)-2-oxo-ethyl]-N-pyridin-2-ylmethyl-3-(4-trifluoromethyl-phenyl)-acrylamide] stands 25 nM; under `Cc1nc(C)c(C=CC(=O)N(Cc2ccc(N3CCOCC3)cc2)[C@@H](Cc2ccccc2)C(=O)N2CCc3ccccc3C2)s1` [Example 251, (S)—N-[1-Benzyl-2-(3,4-dihydro-1H-isoquinolin-2-yl)-2-oxo-ethyl]-3-(2,4-dimethyl-thiazol-5-yl)-N-(4-morpholin-4-yl-benzyl)-acrylamide], 42 nM.
Same read-out and setting: the same measure for `Cc1ncsc1C=CC(=O)N(Cc1ccc(-c2ncccn2)cc1)[C@@H](Cc1ccccc1)C(=O)N1CCc2ccccc2C1` [Example 104, (S)—N-[1-Benzyl-2-(3,4-dihydro-1H-isoquinolin-2-yl)-2-oxo-ethyl]-3-(4-methyl-thiazol-5-yl)-N-(4-pyrimidin-2-yl-benzyl)-acrylamide]: 84 nM; for `O=C([C@H](Cc1ccccc1)N(Cc1ccc(-c2ccccn2)cc1)C(=O)C=Cc1ccc(C(F)(F)F)cc1)N1CCc2c(F)cccc2C1` [Example 74, (S)—N-[1-Benzyl-2-(5-fluoro-3,4-dihydro-1H-isoquinolin-2-yl)-2-oxo-ethyl]-N-(4-pyridin-2-yl-benzyl)-3-(4-trifluoromethyl-phenyl)-acrylamide]: 11 nM; for `Cc1c(C=CC(=O)N(Cc2ccc(-c3ccncc3)cc2)[C@@H](Cc2ccccc2)C(=O)N2CCc3ccccc3C2)cnn1C` [Example 250, (S)—N-[1-Benzyl-2-(3,4-dihydro-1H-isoquinolin-2-yl)-2-oxo-ethyl]-3-(1,5-dimethyl-1H-pyrazol-4-yl)-N-(4-pyridin-4-yl-benzyl)-acrylamide]: 2 nM.
`Cn1cc(CC(C(=O)N2CCc3ccccc3C2)N(Cc2ccc(-c3ccncc3)cc2)C(=O)C=Cc2ccc(C(F)(F)F)cc2)cn1` (racemic) [Example 80, rac-N-[2-(3,4-Dihydro-1H-isoquinolin-2-yl)-1-(1-methyl-1H-pyrazol-4-ylmethyl)-2-oxo-ethyl]-N-(4-pyridin-4-yl-benzyl)-3-(4-trifluoromethyl-phenyl)-acrylamide]: the IC50 under setting [1] amounted to 107 nM.
For `Cc1nc(C)c(C=CC(=O)N(Cc2ccc(-c3cccnn3)cc2)[C@@H](Cc2ccccc2)C(=O)N2CCc3ccccc3C2)s1` [Example 145, (S)—N-[1-Benzyl-2-(3,4-dihydro-1H-isoquinolin-2-yl)-2-oxo-ethyl]-3-(2,4-dimethyl-thiazol-5-yl)-N-(4-pyridazin-3-yl-benzyl)-acrylamide], the IC50 under setting [1] worked out at 13 nM.
Same read-out and setting: under `Cc1c(C=CC(=O)N(Cc2ccc(-c3ncccn3)cc2)[C@@H](Cc2ccccc2)C(=O)N2CCc3ccccc3C2)cnn1C` [Example 99, (S)—N-[1-Benzyl-2-(3,4-dihydro-1H-isoquinolin-2-yl)-2-oxo-ethyl]-3-(1,5-dimethyl-1H-pyrazol-4-yl)-N-(4-pyrimidin-2-yl-benzyl)-acrylamide] stands 29 nM.
Consider `COc1ccc(C=CC(=O)N(Cc2ccc(-c3ccncc3)cc2)[C@@H](Cc2ccccc2)C(=O)N2CCc3ccccc3C2)nn1` [Example 239, (S)—N-[1-Benzyl-2-(3,4-dihydro-1H-isoquinolin-2-yl)-2-oxo-ethyl]-3-(6-methoxy-pyridazin-3-yl)-N-(4-pyridin-4-yl-benzyl)-acrylamide], for which the IC50 under setting [1] stood at 9 nM.
`O=C([C@H](Cc1ccccc1)N(Cc1ccc(-n2cncn2)cc1)C(=O)C=Cc1ccc(Cl)nc1)N1CCc2ccccc2C1` [Example 167, (S)—N-[1-Benzyl-2-(3,4-dihydro-1H-isoquinolin-2-yl)-2-oxo-ethyl]-3-(6-chloro-pyridin-3-yl)-N-(4-[1,2,4]-triazol-1-yl-benzyl)-acrylamide]: the IC50 under setting [1] turned out to be 8 nM.
On the same count and under the same terms, the same measure for `Cc1ncsc1C=CC(=O)N(Cc1ccc(-n2cncn2)cc1)[C@@H](Cc1ccccc1)C(=O)N1CCc2ccccc2C1` [Example 178, (S)—N-[1-Benzyl-2-(3,4-dihydro-1H-isoquinolin-2-yl)-2-oxo-ethyl]-3-(4-methyl-thiazol-5-yl)-N-(4-[1,2,4]-triazol-1-yl-benzyl)-acrylamide]: 28 nM; for `O=C([C@H](Cc1ccccc1)N(Cc1ccc(-c2nccs2)cc1)C(=O)C=Cc1ccc(C(F)(F)F)cc1)N1CCc2ccccc2C1` [Example 199, (S)—N-[1-Benzyl-2-(3,4-dihydro-1H-isoquinolin-2-yl)-2-oxo-ethyl]-N-(4-thiazol-2-yl-benzyl)-3-(4-trifluoromethyl-phenyl)-acrylamide]: 4 nM.
The same measure, in the same setting: under `O=C([C@H](Cc1ccccc1)N(Cc1ccc(-c2cncnc2)cc1)C(=O)C=Cc1ccc(C(F)(F)F)nc1)N1CCc2ccccc2C1` [Example 4, (S)—N-[1-Benzyl-2-(3,4-dihydro-1H-isoquinolin-2-yl)-2-oxo-ethyl]-N-(4-pyrimidin-5-yl-benzyl)-3-(6-trifluoromethyl-pyridin-3-yl)-acrylamide] stands 5 nM.
On to `Cc1nn(C)c(C)c1C=CC(=O)N(Cc1ccc(-n2ccnn2)cc1)[C@@H](Cc1ccccc1)C(=O)N1CCc2ccccc2C1` [Example 157, (S)—N-[1-Benzyl-2-(3,4-dihydro-1H-isoquinolin-2-yl)-2-oxo-ethyl]-N-(4-[1,2,3]-triazol-1-yl-benzyl)-3-(1,3,5-trimethyl-1H-pyrazol-4-yl)-acrylamide], for which the IC50 under setting [1] was found to be 2 nM.

In general, IC50 refers to the midpoint of a concentration-inhibition curve.
